Assay results as given in patent US20060247420A1, “Immune cell recptor ligand and immune cell receptor” (priority 2002, published 2006).

How the values were obtained:
[1] = system: Letal mRNA in A2008 ovarian carcinoma cell line; experiment: Letal mRNA expression in treated A2008 cells, real-time quantitative RT-PCR (TaqMan); format: cell-based, human
Procedure: Quantification of Letal by real-time quantitative RT-PCR. Letal expression was analyzed by TaqMan analysis as previously described (Garcia et al, FASEB J 15(10):1819-1821 (2001)). The Letal system consisted of the primers: Letal.F, 5′-[…]-3′ (SEQ ID NO:13); Letal.R, 5′-[…]-3′ (SEQ ID NO:14), and the probe Letal.P, 5′-(FAM)[…] (SEQ ID NO:15) (TAMRA)-3′. The cDNA load was normalized to human GAPDH with primers GAPDH F: 5′-[…]-3′ (SEQ ID NO:16) and GAPDH R: 5′[…]-3′ (SEQ ID NO:17) and the probe GAPDH.P: 5′(FAM) […] (TAMRA)-3′ (SEQ ID NO:18).
Tissues, cell lines and purification of cells. Normal human tissues were obtained from the Cooperative Human Tissue Network (Zhang et al, N. Engl. J. Med. 348(3):203-213 (2003)). A2008 ovarian carcinoma cell line was treated for 24 h with serum-free medium (control) or serum-free medium containing either 10 U/ml interleukin (IL)-1β, 10 ng/ml tumor necrosis factor (TNF-α), 40 ng/ml interferon (IFNγ), 0.5 μg/ml Lypopolyssaccaride (LPS), or 10 ng/ml TNF-α plus 40 ng/ml IFN-γ. 10 ng/ml PMA was kept for 4 hs and retinoic acid for 24, 48, and 72 hs. All the cytokines were from Peprotech (Rocky Hill, N.J.), except retinoic acid (Sigma, St Louis, Mo.). Additionally, cells were cultured in media without glucose for 48 hs or under hypoxia (1.5% O2) for 16 hs. Fresh peripheral blood lymphocytes were obtained by leukapheresis and elutriation. […]

[2] = system: NKG2D on peripheral CD8^+ T-cells; experiment: NKG2D expression on CD8+ lymphocytes after co-culture with K32 aAPCs, flow cytometry; format: cell-based, human; settings: peripheral CD8^+ T-cells co-cultured 4 days with K32 aAPCs; versus mock-transduced K32
Excerpt: (§1) CD8^+ lymphocyte stimulation and cytokine release. To analyze the effects of Letal on the T-cell proliferation and production of cytokines, a previously described artificial antigen-presenting cell (aAPC) model was used (Maus et al, Nat. Biotechnol. 20(2):143-148 (2002)). Briefly, the system is based on the stable expression of the human low-affinity Fcγ receptor, CD32, on K562 cells (K32 cell line). K32 cell-based aAPCs were additionally transduced with Letal or with the empty vector as described above, irradiated with 100Gy, and washed twice with RPMI medium. Letal^+-K32 cells or mock transductants were loaded, when indicated, with anti-CD3 (OKT3), or anti-CD3 plus anti-CD28 (mAbs; 9.3) monoclonal antibodies at 0.5 μg/ml for 10 min at room temperature. Loaded &APCs were mixed with CD8^+ T-cells at a 1:2 ratio and the T-cell concentration was maintained at 0.5×10^6 cells/ml throughout the culture. Cultures were pulsed with 1 μCi of [^3H] thymidine from day 2 to day 5 and incorporated radioactivity was determined using a 1450 Microbeta scintillation counter (Wallac, Turku, Finland). The amounts of secreted IL-2 and IFNγ were determined by commercial ELISA, following the manufacturer's instructions (R & D Systems). Flow cytometry was performed with a FACScalibur (BD Biosciences, San Jose, Calif.). […]

[3] = system: Fas on peripheral CD8^+ T-cells; experiment: Fas expression on stimulated CD8+ T-cells, flow cytometry; format: cell-based, human; settings: 4 days stimulation; compared to CD3/CD28 costimulated T-cells
Procedure: (§2) Apoptosis assay. The percentage of apoptotic cells was determined after 17 h incubation with 50 μM cisplatin or 18 hs exposure to 0.1 μg/ml anti-CD95 mAb (EOS9.1; Pharmingen) by using the TACS annexin-V apoptosis detection kit, according to the manufacturer's instructions (R & D Systems). Fas expression was determined by flow cytometry by using EOS9.1 as a primary Ab and a PE-labeled anti-mouse IgM (R6-60.2; Pharmingen) as a second Ab.
Letal engagement protects CD8^+ T-cells from FasL-induced apoptosis. […] Because ovarian carcinomas express FasL and other lymphocyte-depleting death ligands (Rabinowich et al, J. Clin. Invest. 101:2579-2588 (1998)), the prevalence of FasL expression and its impact on TILs was determined in 42 stage III ovarian carcinoma specimens. Strong FasL immunoreactivity was detected in tumor cells in areas of selected specimens (FIG. 10A), as well as in a proportion of stromal leukocytes. To test whether Letal promotes the generation of activated T-cell subpopulations that are able to resist the pro-apoptotic tumor microenvironment, peripheral CD8^+ T-cells were stimulated for 4 days with CD3/Letal, CD3/CD28, or anti-CD3 alone, and expression of Fas was measured by flow cytometry. […]

[4] = system: glucose transporter Glut-1 in peripheral CD8^+ T-cells; experiment: Glut-1 expression in stimulated CD8+ T-cells, flow cytometry; format: cell-based, human; settings: 20 hr stimulation
Excerpt: CD8^+ lymphocyte stimulation, cytokine release and glucose metabolism analysis. To analyze the effects of Letal on the T-cell proliferation and production of cytokines, a previously described artificial antigen-presenting cell (aAPC) model was used (Maus et al, Nat. Biotechnol. 20:143-148 (2002)). Briefly, the system is based on the stable expression of the human low-affinity Fcγ receptor, CD32, on K562 cells (K32 cell line). K32 cell-based aAPCs were additionally transduced with Letal or with the empty vector as described above, irradiated with 100Gy, and washed twice with RPMI medium. […] Cultures were pulsed with 1 μCi of [^3H] thymidine from day 2 to day 5 and incorporated radioactivity was determined using a 1450 Microbeta scintillation counter (Wallac, Turku, Finland). The amounts of secreted IL-2 and IFN-γ were determined by commercial ELISA, following the manufacturer's instructions (R & D Systems). […]
Letal signaling increases glucose transporter expression and glucose uptake during T-cell activation. […] To test whether Letal may have a similar effect during T-cell activation, peripheral CD8^+ T-cells were stimulated for 20 hr with anti-CD3, anti-CD3/anti-CD28, anti-CD3/Letal, or Letal alone and the expression of the glucose transporter Glut-1 was analyzed by flow cytometry. […]

peripheral CD8^+ T-cells [5] = experiment: Cisplatin-induced apoptosis of pre-stimulated CD8+ lymphocytes, annexin-V; format: cell-based, human; settings: pre-stimulated 3 days; 50 μM cisplatin for 17 hr
Procedure: as §2
Cytotoxic chemotherapy can, however, deplete tumor-specific effector T-cells (Lee et al, Nat. Med. 5:677-685 (1999)). Because the glycolytic pathway is implicated in lymphocyte survival (Plas et al, Nat. Immunol. 3:515-521 (2002)), a determination was made as to whether Letal could protect T-cells from early apoptotic death induced by genotoxic drugs.

peripheral CD8^+ T-cells [6] = experiment: CD8+ lymphocyte proliferation/expansion with K32 aAPCs ([3H] thymidine); format: cell-based, human; settings: day 5; three independent experiments
Excerpt: as §1

peripheral CD8^+ T-cells [7] = experiment: Glucose uptake with [3H]-2-deoxyglucose in stimulated CD8+ T-cells; format: cell-based, human; settings: 20 hr stimulation
Excerpt: as §1, with “stimulation, cytokine release” for “stimulation”, “glucose metabolism analysis.” for “cytokine release.”, “20:143-148” for “20(2):143-148”, “aAPCs” for “&APCs”, “IFN-γ” for “IFNγ”, “Systems).” for “Systems). Flow cytometry was performed with a FACScalibur (BD Biosciences, San Jose, Calif.).”
Glucose uptake rates were next measured with [^3H]-2-deoxyglucose in cells stimulated as described above. […]

[8] = biological target: T1, Lymphocyte Effector cell Toxicity Activating Ligand (Letal) (human, UniProt Q8TD07 29-263); experiment: flow cytometry, 3 µg/ml NKG2D/Fc on Letal-transduced K562 and SKOV3 cells, detected with anti-human IgG mAb
T1 construct: Expressed from the complete open reading frame by retroviral transduction on K562 and SKOV3 cells; also called ULBP4; RAET1E
T1 sequence: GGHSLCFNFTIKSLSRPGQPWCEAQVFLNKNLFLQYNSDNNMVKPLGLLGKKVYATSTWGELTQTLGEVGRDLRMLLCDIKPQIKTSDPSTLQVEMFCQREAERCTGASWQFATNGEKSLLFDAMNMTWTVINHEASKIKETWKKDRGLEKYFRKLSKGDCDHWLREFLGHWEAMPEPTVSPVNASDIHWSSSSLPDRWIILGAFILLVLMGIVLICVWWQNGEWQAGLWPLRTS
Excerpt: Constructs and generation of antibodies. SKOV3 and K562 cells were transduced using retroviral vector MIGR1, generously provided by Warren Pear (University of Pennsylvania). Letal or mock transductants expressing equivalent levels of the green fluorescent protein were sorted and cultured by standard procedures. […] Anti-human IgG mAb (G18-145; Pharmingen, San Diego, Calif.) was used to detect the chimerical molecule.
Letal is a ligand of NKG2D expressed in a variety of normal tissues. […] Expression of the Letal protein was confirmed on transduced cells, but not on mocked transductants, by flow cytometry using serum of Letal-immunized mice (FIG. 1D). […] To evaluate the binding of NKG2D to transduced Letal, a recombinant soluble NKG2D-Fc fusion protein was used, containing the ectodomain of the immunoreceptor (Phe78 through Val216). […] Treatment with phospholipase C decreased binding of sNKG2D to Letal⁺ K562 cells, although binding was higher than to control cells.

**Q.** With `CC1=C(/C=C/C(C)=C/C=C/C(C)=C/C(=O)O)C(C)(C)CCC1` [retinoic acid] as the molecule, how does the “decrease of Letal mRNA expression” value ([1]; maximum, after 72 hr stimulation) read?
**A.** Its value is 6 fold.

**Q.** Which “increase of basal Letal mRNA levels” value ([1]; TNF-α 10 ng/ml, 24 h) does the source give for TNF-α here?
**A.** Its value is 3 fold.

**Q.** What does the source list for “anti-CD3: anti-CD3 (OKT3) monoclonal antibody loaded on Letal^− K32 aAPCs [reference compound]”?
**A.** increase of NKG2D expression [2]: same result than CD3/Letal stimulation; Fas expression [3]: markedly higher; cells with altered Glut-1 expression [4]: 11%; apoptosis after cisplatin (peripheral CD8^+ T-cells [5]): higher percentage of apoptotic cells; fewer CD8^+ cells with CD3 stimulation in the absence of Letal (peripheral CD8^+ T-cells [6]): 29%; glucose uptake rate (peripheral CD8^+ T-cells [7]): little to no effect

B1: recombinant human NKG2D/Fc chimera (R & D Systems) (Fc fusion, UniProt P26718 78-216, looked up)
chain: FLNSLFNQEVQIPLTESYCGPCPKNWICYKNNCYQFFDESKNWYESQASCMSQNASLLKVYSKEDQDLLKLVKSYHWMGLVHIPTNGSWQWEDGSILSPNLLTIIEMQKGDCALYASSFKGYIENCSTPNTYICMQRTV
notes: range 78-216; Bought reagent; also called NKG2D-Fc protein; recombinant soluble NKG2D-Fc fusion protein; Fc part of the bought chimera not given, detected with anti-human IgG mAb
**Q.** Does B1 bind [8]?
**A.** Result: binds
